EC50 data for 16 compounds are collected here from US12577206B2 (BRISTOL-MYERS SQUIBB COMPANY, priority 2020, dated 2026).

Where only a bound is given, the exact number is not on record here.

One experiment has as its target T1, human FPR1 (Homo sapiens, UniProt P21462).
T1 sequence (P21462 1-350): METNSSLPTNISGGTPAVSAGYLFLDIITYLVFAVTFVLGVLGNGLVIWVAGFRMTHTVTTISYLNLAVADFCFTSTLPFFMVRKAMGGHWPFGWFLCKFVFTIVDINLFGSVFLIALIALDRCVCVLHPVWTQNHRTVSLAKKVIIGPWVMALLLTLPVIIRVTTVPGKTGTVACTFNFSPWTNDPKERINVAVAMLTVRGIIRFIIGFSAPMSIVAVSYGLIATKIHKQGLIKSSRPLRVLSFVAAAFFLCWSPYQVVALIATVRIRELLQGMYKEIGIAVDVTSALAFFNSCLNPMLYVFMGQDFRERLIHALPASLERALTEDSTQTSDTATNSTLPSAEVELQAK
Description: FPR1 cyclic adenosine monophosphate (cAMP) assay. The format is cell-based. The note with it: CHO cells overexpressing human FPR1; forskolin 10 μM; inhibition of cAMP production; HTRF; read-out: hFPR1 cAMP2 EC50. The text has this: (§1) N-formyl peptide receptors (FPRs) are a family of chemo attractant receptors that facilitate leukocyte response during inflammation. FPRs belong to the seven-transmembrane G protein-coupled receptor superfamily and are linked to inhibitory G-proteins (Gi). Three family members (FPR1, FPR2 and FPR3) have been identified in humans and are predominantly found in myeloid cells with varied distribution and have also been reported in multiple organs and tissues. After agonist binding, the FPRs activate a multitude of physiological pathways, such as intra cellular signaling transduction, Ca^2+ mobilization and transcription. The family interacts with a diverse set of ligands that includes proteins, polypeptides and fatty acid metabolites which activate both pro-inflammatory and pro-resolution downstream responses. FPR2 and FPR1 Cyclic Adenosine Monophosphate (cAMP) Assays were used to measure the in vitro activity of the compounds disclosed in this application.
(§2) FPR2 and FPR1 Cyclic Adenosine Monophosphate (cAMP) Assays. A mixture of forskolin (5 μM final for FPR2 or 10 μM final for FPR1) and IBMX (200 μM final) were added to 384-well Proxiplates (Perkin-Elmer) pre-dotted with test compounds in DMSO (1% final) at final concentrations in the range of 0.020 nM to 100 μM. Chinese Hamster Ovary cells (CHO) overexpressing human FPR1 or human FPR2 receptors were cultured in F-12 (Ham's) medium supplemented with 10% qualified FBS, 250 μg/mL zeocin and 300 μg/mL hygromycin (Life Technologies). Reactions were initiated by adding 2,000 human FPR2 cells per well or 4,000 human FPR1 cells per well in Dulbecco's PBS (with calcium and magnesium) (Life Technologies) supplemented with 0.1% BSA (Perkin-Elmer). The reaction mixtures were incubated for 30 min at rt. The level of intracellular cAMP was determined using the HTRF HiRange cAMP assay reagent kit (Cisbio) according to manufacturer's instruction. Solutions of cryptate conjugated anti-cAMP and d2 flurorophore-labeled cAMP were made in a supplied lysis buffer separately. Upon completion of the reaction, the cells were lysed with equal volume of the d2-cAMP solution and anti-cAMP solution. […] The potency and activity of a compound to inhibit cAMP production was then determined by fitting to a 4-parametric logistic equation from a plot of cAMP level versus compound concentrations.
A general note: Cyclic AMP is a second messenger, typically raised through Gs and lowered through Gi signalling.

Another experiment deals with T2, human FPR2 (Homo sapiens, UniProt P25090).
T2 sequence (P25090 1-351): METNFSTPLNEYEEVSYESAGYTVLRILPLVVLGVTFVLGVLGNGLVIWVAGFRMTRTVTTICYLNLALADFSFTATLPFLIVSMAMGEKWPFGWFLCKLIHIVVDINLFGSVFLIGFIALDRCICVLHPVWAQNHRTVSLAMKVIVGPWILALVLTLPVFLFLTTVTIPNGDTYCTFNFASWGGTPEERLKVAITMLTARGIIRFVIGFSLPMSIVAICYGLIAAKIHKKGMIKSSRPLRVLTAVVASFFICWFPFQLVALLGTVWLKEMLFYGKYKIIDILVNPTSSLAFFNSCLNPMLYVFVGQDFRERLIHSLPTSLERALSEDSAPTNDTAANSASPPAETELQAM
Description: FPR2 cyclic adenosine monophosphate (cAMP) assay. Format: cell-based. The conditions noted are these: CHO cells overexpressing human FPR2; forskolin 5 μM; inhibition of cAMP production; HTRF; read-out: hFPR2 cAMP2 EC50.
Source text: as §1, §2

As for `COc1cc(F)c(-c2c(NC(=O)c3ccc(OC(F)F)cc3)c(=O)n(-c3nc(N4CCC(C(N)=O)C4)ccc3C(F)(F)F)n2C)c(F)c1` (centres unmarked) [Example 303, 1-{6-[3-(2,6-difluoro-4-methoxyphenyl)-4-[4-(difluoromethoxy)benzamido]-2-methyl-5-oxo-2,5-dihydro-1H-pyrazol-1-yl]-5-(trifluoromethyl)pyridin-2-yl}pyrrolidine-3-carboxamide], the EC50 on human FPR1 is > 10000 nM; on human FPR2 it was 1 nM.
Consider `COc1cc(F)c(-c2c(NC(=O)c3ccc(OC(F)F)cc3)c(=O)n(-c3nc(OC)ccc3C#N)n2C)c(F)c1` [Example 185, N-[2-(3-cyano-6-methoxypyridin-2-yl)-5-(2,6-difluoro-4-methoxyphenyl)-1-methyl-3-oxo-2,3-dihydro-1H-pyrazol-4-yl]-4-(difluoromethoxy)benzamide], for which the EC50 on human FPR1 was > 10000 nM; at human FPR2, 5 nM.
As for `COc1cc(F)c(-c2c(NC(=O)c3ccc(OC(F)F)cc3)c(=O)n(-c3cc(F)ccc3C)n2C)c(F)c1` [Example 14, N-[5-(2,6-difluoro-4-methoxyphenyl)-2-(5-fluoro-2-methylphenyl)-1-methyl-3-oxo-2,3-dihydro-1H-pyrazol-4-yl]-4-(difluoromethoxy)benzamide], the values for the EC50 at human FPR1 and on human FPR2 were > 10000 nM and 23 nM, respectively.
Take `COc1cc(F)c(-c2c(NC(=O)c3ccc(OC(F)F)cc3)c(=O)n(-c3cccc(C#N)c3F)n2C)c(F)c1` [Example 189, N-[2-(3-cyano-2-fluorophenyl)-5-(2,6-difluoro-4-methoxyphenyl)-1-methyl-3-oxo-2,3-dihydro-1H-pyrazol-4-yl]-4-(difluoromethoxy)benzamide]: the EC50 is 190 nM at human FPR1 and 5 nM at human FPR2.
`COc1cc(F)c(-c2c(NC(=O)c3ccc(OC(F)F)cc3)c(=O)n(-c3nc(C)ccc3C#N)n2C)c(F)c1` [Example 357, N-(2-(3-Cyano-6-methylpyridin-2-yl)-5-(2,6-difluoro-4-methoxyphenyl)-1-methyl-3-oxo-2,3-dihydro-1H-pyrazol-4-yl)-4-(difluoromethoxy)benzamide]: the results for the EC50 on human FPR1 and at human FPR2 were > 10000 nM and 5 nM, respectively.
In the same order, the values of `COc1cc(F)c(-c2c(NC(=O)c3ccc(OC(F)F)cc3)c(=O)n(-c3nc(OCC(C)(C)O)ccc3C(F)(F)F)n2C)c(F)c1` [Example 288, N-[5-(2,6-difluoro-4-methoxyphenyl)-2-[6-(2-hydroxy-2-methylpropoxy)-3-(trifluoromethyl)pyridin-2-yl]-1-methyl-3-oxo-2,3-dihydro-1H-pyrazol-4-yl]-4-(difluoromethoxy)benzamide] are > 10000 nM and 1 nM.
In the same order, the values of `COc1cc(F)c(-c2c(NC(=O)c3ccc(OC(F)F)cc3)c(=O)n(-c3nc(S(C)(=O)=O)ccc3C(F)(F)F)n2C)c(F)c1` [Example 318, N-[5-(2,6-difluoro-4-methoxyphenyl)-2-[6-methanesulfonyl-3-(trifluoromethyl)pyridin-2-yl]-1-methyl-3-oxo-2,3-dihydro-1H-pyrazol-4-yl]-4-(difluoromethoxy)benzamide] are > 10000 nM and 7 nM.
In the same order, the values of `COc1cc(F)c(-c2c(NC(=O)c3ccc(Cl)cc3)c(=O)n(-c3ccc(Cl)cn3)n2C)c(F)c1` [Example 43, 4-chloro-N-[2-(5-chloropyridin-2-yl)-5-(2,6-difluoro-4-methoxyphenyl)-1-methyl-3-oxo-2,3-dihydro-1H-pyrazol-4-yl]benzamide] are > 10000 nM and 41 nM.
With `COc1ccc(-c2c(NC(=O)c3ccc(OC(F)F)cc3)c(=O)n(-c3ncccc3C(F)(F)F)n2C)c(F)c1` [Example 263, 4-(difluoromethoxy)-N-[5-(2-fluoro-4-methoxyphenyl)-1-methyl-3-oxo-2-[3-(trifluoromethyl)pyridin-2-yl]-2,3-dihydro-1H-pyrazol-4-yl]benzamide], the figures for the EC50 on human FPR1 and at human FPR2 were 1700 nM and 8 nM, respectively.
In the same order, the values of `CCOC1(c2ccc(C#N)c(-n3c(=O)c(NC(=O)c4ccc(OC(F)F)cc4)c(-c4c(F)cc(OC)cc4F)n3C)n2)CC1` [Example 192, N-{2-[3-cyano-6-(1-ethoxycyclopropyl)pyridin-2-yl]-5-(2,6-difluoro-4-methoxyphenyl)-1-methyl-3-oxo-2,3-dihydro-1H-pyrazol-4-yl}-4-(difluoromethoxy)benzamide] are > 10000 nM and 4 nM.
Regarding `COc1cc(F)c(-c2c(NC(=O)c3ccc(OC(F)F)cc3)c(=O)n(-c3nc(N4CCN(C)CC4)ccc3Cl)n2C)c(F)c1` [Example 143, N-{2-[3-chloro-6-(4-methylpiperazin-1-yl)pyridin-2-yl]-5-(2,6-difluoro-4-methoxyphenyl)-1-methyl-3-oxo-2,3-dihydro-1H-pyrazol-4-yl}-4-(difluoromethoxy)benzamide], the EC50 on human FPR1 was determined as 3700 nM; at human FPR2, 10 nM.
With `COc1cc(F)c(-c2c(NC(=O)c3ccc(OC(F)F)cc3)c(=O)n(-c3nc(OCC4CC4)ccc3C(F)(F)F)n2C)c(F)c1` [Example 287, N-{2-[6-(cyclopropylmethoxy)-3-(trifluoromethyl)pyridin-2-yl]-5-(2,6-difluoro-4-methoxyphenyl)-1-methyl-3-oxo-2,3-dihydro-1H-pyrazol-4-yl}-4-(difluoromethoxy)benzamide], the EC50 at human FPR1 is > 5000 nM; at human FPR2, 13 nM.
Consider `COc1cc(F)c(-c2c(NC(=O)c3ccc(OC(F)F)cc3)c(=O)n(-c3nc(N4CC5(CC(O)C5)C4)ccc3C(F)(F)F)n2C)c(F)c1` [Example 308, N-[5-(2,6-difluoro-4-methoxyphenyl)-2-(6-{6-hydroxy-2-azaspiro[3.3]heptan-2-yl}-3-(trifluoromethyl)pyridin-2-yl)-1-methyl-3-oxo-2,3-dihydro-1H-pyrazol-4-yl]-4-(difluoromethoxy)benzamide], for which the EC50 on human FPR1 was > 10000 nM; at human FPR2, 3 nM.
In the same order, the values of `COc1cc(F)c(-c2c(NC(=O)c3ccc(OC(F)F)cc3)c(=O)n(-c3cc(OC4CCOC4)cc(C)n3)n2C)c(F)c1` (centres unmarked) [Example 320, N-(5-(2,6-Difluoro-4-methoxyphenyl)-1-methyl-2-(6-methyl-4-((tetrahydrofuran-3-yl)oxy)pyridin-2-yl)-3-oxo-2,3-dihydro-1H-pyrazol-4-yl)-4-(difluoromethoxy)benzamide] are 990 nM and 2 nM.
As to `COc1cc(F)c(-c2c(NC(=O)c3ccc(OC(F)F)cc3)c(=O)n(-c3nc(N4CCN(S(C)(=O)=O)CC4)ccc3C(F)(F)F)n2C)c(F)c1` [Example 268, N-[5-(2,6-difluoro-4-methoxyphenyl)-2-[6-(4-methanesulfonylpiperazin-1-yl)-3-(trifluoromethyl)pyridin-2-yl]-1-methyl-3-oxo-2,3-dihydro-1H-pyrazol-4-yl]-4-(difluoromethoxy)benzamide], the EC50 was determined as 1500 nM at human FPR1 and 2 nM on human FPR2.
In the same order, the values of `COc1cc(C2CC2)nc(-n2c(=O)c(NC(=O)c3ccc(OC(F)F)cc3)c(-c3c(F)cc(OC)cc3F)n2C)c1` [Example 88, N-(2-(6-cyclopropyl-4-methoxypyridin-2-yl)-5-(2,6-difluoro-4-methoxyphenyl)-1-methyl-3-oxo-2,3-dihydro-1H-pyrazol-4-yl)-4-(difluoromethoxy)benzamide] are 6300 nM and 2 nM.

In general, EC50 refers to the concentration needed to bring the measured effect to its halfway point.
